These results are taken from patent US20080306076A1, “MODULATION OF CHEMOSENSORY RECEPTORS AND LIGANDS ASSOCIATED THEREWITH” (SENOMYX, INC., priority 2007, published 2008).

The target of one experiment is T1, hT1R1 H71A (Homo sapiens, UniProt Q7RTX1, H71A).
T1 construct: expressed in transfected cells; host or cells: HEK293, transient transfection
T1 sequence (Q7RTX1 21-841 H71A): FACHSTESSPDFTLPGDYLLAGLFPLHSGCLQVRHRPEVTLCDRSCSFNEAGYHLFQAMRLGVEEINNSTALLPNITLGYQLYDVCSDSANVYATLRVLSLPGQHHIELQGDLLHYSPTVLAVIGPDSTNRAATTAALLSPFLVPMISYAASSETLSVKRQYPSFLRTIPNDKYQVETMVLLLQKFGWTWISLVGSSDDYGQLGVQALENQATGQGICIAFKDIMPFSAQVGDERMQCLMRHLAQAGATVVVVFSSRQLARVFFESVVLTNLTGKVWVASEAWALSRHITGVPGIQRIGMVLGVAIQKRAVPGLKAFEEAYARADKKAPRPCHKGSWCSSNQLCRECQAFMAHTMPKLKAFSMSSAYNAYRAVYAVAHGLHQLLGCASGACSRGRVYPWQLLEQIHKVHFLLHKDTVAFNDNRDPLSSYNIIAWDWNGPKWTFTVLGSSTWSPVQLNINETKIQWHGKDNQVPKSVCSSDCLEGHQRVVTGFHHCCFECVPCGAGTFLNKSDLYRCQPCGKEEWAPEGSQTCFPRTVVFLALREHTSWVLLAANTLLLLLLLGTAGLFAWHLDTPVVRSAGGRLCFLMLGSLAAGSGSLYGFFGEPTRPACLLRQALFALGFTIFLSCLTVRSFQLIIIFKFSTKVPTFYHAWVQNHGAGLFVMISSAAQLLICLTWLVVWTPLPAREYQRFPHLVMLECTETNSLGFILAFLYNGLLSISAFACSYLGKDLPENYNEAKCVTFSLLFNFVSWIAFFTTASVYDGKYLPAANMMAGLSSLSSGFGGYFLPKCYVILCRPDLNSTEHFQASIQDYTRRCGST
T1 sequence (Q923K1 21-858 partner): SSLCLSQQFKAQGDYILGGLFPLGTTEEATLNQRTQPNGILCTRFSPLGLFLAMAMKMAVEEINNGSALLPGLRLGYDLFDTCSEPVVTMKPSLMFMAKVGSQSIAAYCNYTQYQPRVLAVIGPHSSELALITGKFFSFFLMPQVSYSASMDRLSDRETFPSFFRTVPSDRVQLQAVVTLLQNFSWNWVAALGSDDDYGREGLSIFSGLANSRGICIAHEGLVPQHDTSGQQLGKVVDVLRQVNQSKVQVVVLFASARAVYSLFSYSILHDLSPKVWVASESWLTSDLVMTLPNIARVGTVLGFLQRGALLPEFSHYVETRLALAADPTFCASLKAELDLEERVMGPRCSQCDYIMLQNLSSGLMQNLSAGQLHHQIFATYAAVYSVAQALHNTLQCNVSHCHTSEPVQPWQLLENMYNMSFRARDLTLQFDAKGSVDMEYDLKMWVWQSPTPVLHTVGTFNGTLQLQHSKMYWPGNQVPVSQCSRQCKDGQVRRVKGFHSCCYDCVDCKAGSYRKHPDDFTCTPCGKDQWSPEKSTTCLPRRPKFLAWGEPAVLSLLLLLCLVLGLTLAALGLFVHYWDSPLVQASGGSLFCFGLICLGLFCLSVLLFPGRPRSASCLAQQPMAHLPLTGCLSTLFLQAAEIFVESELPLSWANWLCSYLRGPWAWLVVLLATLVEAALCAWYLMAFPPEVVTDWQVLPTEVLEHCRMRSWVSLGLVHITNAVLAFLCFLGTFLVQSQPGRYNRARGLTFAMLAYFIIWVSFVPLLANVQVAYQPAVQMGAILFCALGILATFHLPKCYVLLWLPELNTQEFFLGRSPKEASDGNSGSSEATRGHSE
Nature of the experiment: Mutagenesis study, hT1R1 mutant H71A. In kind it is cell-based. The following applies: H71 mutation. An excerpt:
(§1) In order to further define the interaction sites of umami stimuli, we performed site-directed mutagenesis on human T1R1 VFT. The mutagenesis was done using the routine PCR-based method. […] were transiently transfected into HEK293 cell together with the rat T1R3 wild type cDNA, and the transfected cells were characterized using an automated FLIPR machine or a calcium imaging system as described in our previous patent applications.

The next experiment has as its target T2, hT1R1 Y220A (Homo sapiens, UniProt Q7RTX1, Y220A).
T2 construct: expressed in transfected cells; host or cells: HEK293, transient transfection
T2 sequence (Q7RTX1 21-841 Y220A): T1 sequence (Q7RTX1 21-841 H71A) with A51H, Y200A
T2 sequence (Q923K1 21-858 partner): T1 sequence (Q923K1 21-858 partner)
Nature of the experiment: Mutagenesis study, hT1R1 mutant Y220A. In kind it is cell-based. The following applies: Y220 mutant, FIG. 11.
Excerpt: as §1

Where a chain is given by its changes, count along the chain named.

On to `Nc1nc2c(ncn2[C@@H]2O[C@H](COP(=O)(O)O)[C@@H](O)[C@H]2O)c(=O)[nH]1` [GMP, guanosine-5′-monophosphate], for which the “enhancement activity of GMP” value at hT1R1 H71A is on record as “similarly affected”.
Consider `N[C@@H](CCC(=O)O)C(=O)O` [L-Glu, L-glutamate], for which the “activity against L-Glu” value at hT1R1 Y220A is listed as “significant reduced activity”.
